Test results published in patent US20110172296A1, “MODULATION OF TRANSFORMING GROWTH FACTOR-BETA 1 EXPRESSION” (priority 2010, published 2011).
“And” between values parts separate entries of the source, which are not always exact repeats. Equal values may be shown once. In the oligonucleotide strings, read from the 5' end, every base follows the letter of its sugar. An asterisk marks phosphorothioate; unmarked linkages are phosphodiester. Other units and linkages are bracketed, terminal groups are in braces. A string of capitals states the bases alone. e = 2'-O-(2-methoxyethyl) (MOE); [5mC] = 5-methylcytosine; d = 2'-deoxy (DNA)

Tested on: human TGF-beta1 mRNA
Assay: Antisense inhibition of human TGF-beta1 mRNA in HuVEC cells, single 10 nM dose, Lipofectamine 2000 (Example 2)
Type: cell-based
Conditions: for % inhibition: 10 nM oligonucleotide, HuVEC, relative to untreated control cells, gapmers targeted to SEQ ID NO: 1; for inhibition of a TGF-beta1 mRNA: threshold lists of Oligo IDs, 10 nM
Procedure: Antisense oligonucleotides targeted to a TGF-beta1 nucleic acid were tested for their effects on TGF-beta1 mRNA in vitro. Cultured HuVEC cells at a density of 5,000 cells per well were transfected using Lipofectamine™ 2000 reagent with 10 nM antisense oligonucleotide for 4 hours. After a recovery period of approximately 24 hours, RNA was isolated from the cells and TGF-beta1 mRNA levels were measured by quantitative real-time PCR. TGF-beta1 mRNA levels were adjusted according to total RNA content, as measured by RIBOGREEN®. Results are presented as percent inhibition of TGF-beta1, relative to untreated control cells.
The chimeric antisense oligonucleotides in Tables 1 and 2 were designed as 2-13-5 MOE gapmers. Antisense molecules with this motif targeting TGF-beta1 are unique, and represent a novel chemical structure for an ASO directed against this target. The gapmers are 20 nucleotides in length, wherein the central gap segments are comprised of thirteen 2′-deoxynucleotides and are flanked on the 5′ side by wings comprising two nucleotides each and on the 3′ side by wings comprising five nucleotides each. Each nucleotide in the 5′ wing segment and each nucleotide in the 3′ wing segment has a 2′-MOE modification. The internucleoside linkages throughout each gapmer are phosphorothioate (P═S) linkages. All cytosine residues throughout each gapmer are 5-methylcytosines. “Target start site” indicates the 5′-most nucleotide to which the gapmer is targeted. “Target stop site” indicates the 3′-most nucleotide to which the gapmer is targeted. Each gapmer listed in Table 1 is targeted to SEQ ID NO: 1 (GENBANK Accession No. NM_000660.3). Each gapmer listed in Table 2 is targeted to SEQ ID NO: 2 (GENBANK Accession No. NT 011109.15 truncated from 14103000 to […]).

Substance	% inhibition	inhibition of a TGF-beta1 mRNA
413967 (antisense eG*eA*dT*dG*dG*d[5mC]*d[5mC]*d[5mC]*dA*dG*dG*dG*d[5mC]*dG*d[5mC]*eG*eA*eA*eG*eG) [compound 413967]	64%	60%
413968 (antisense eG*eA*dG*dA*dT*dG*dG*d[5mC]*d[5mC]*d[5mC]*dA*dG*dG*dG*d[5mC]*eG*e[5mC]*eG*eA*eA) [compound 413968]	55%	–
413969 (antisense e[5mC]*eG*dA*d[5mC]*dT*d[5mC]*d[5mC]*dT*dT*d[5mC]*d[5mC]*dT*d[5mC]*d[5mC]*dG*e[5mC]*eT*e[5mC]*e[5mC]*eG) [compound 413969]	53%	–
413971 (antisense eG*eG*d[5mC]*d[5mC]*dT*d[5mC]*dA*dG*dG*d[5mC]*dT*dG*d[5mC]*dT*d[5mC]*e[5mC]*eT*e[5mC]*eG*eG) [compound 413971]	78%	60% and 65% and 70% and 75%
413972 (antisense e[5mC]*eT*d[5mC]*dG*dT*d[5mC]*d[5mC]*d[5mC]*dT*d[5mC]*d[5mC]*dT*d[5mC]*d[5mC]*d[5mC]*eG*e[5mC]*eT*e[5mC]*e[5mC]) [compound 413972]	61%	60%
413973 (antisense e[5mC]*eA*dA*d[5mC]*dG*dG*dA*dA*dA*dA*dG*dT*d[5mC]*dT*d[5mC]*eA*eA*eA*eA*eG) [compound 413973]	25%	–
413974 (antisense eG*eG*d[5mC]*dA*dA*d[5mC]*dG*dG*dA*dA*dA*dA*dG*dT*d[5mC]*eT*e[5mC]*eA*eA*eA) [compound 413974]	69%	60% and 65%
413975 (antisense eG*e[5mC]*dG*dG*d[5mC]*dA*dA*d[5mC]*dG*dG*dA*dA*dA*dA*dG*eT*e[5mC]*eT*e[5mC]*eA) [compound 413975]	73%	60% and 65% and 70%
413976 (antisense e[5mC]*eA*dG*d[5mC]*dG*dG*d[5mC]*dA*dA*d[5mC]*dG*dG*dA*dA*dA*eA*eG*eT*e[5mC]*eT) [compound 413976]	72%	60% and 65% and 70%
413977 (antisense e[5mC]*e[5mC]*d[5mC]*dA*dG*d[5mC]*dG*dG*d[5mC]*dA*dA*d[5mC]*dG*dG*dA*eA*eA*eA*eG*eT) [compound 413977]	57%	–
413978 (antisense e[5mC]*eT*d[5mC]*d[5mC]*d[5mC]*dA*dG*d[5mC]*dG*dG*d[5mC]*dA*dA*d[5mC]*dG*eG*eA*eA*eA*eA) [compound 413978]	67%	60% and 65%
413980 (antisense e[5mC]*e[5mC]*dG*dG*d[5mC]*dT*d[5mC]*d[5mC]*d[5mC]*dA*dG*d[5mC]*dG*dG*d[5mC]*eA*eA*e[5mC]*eG*eG) [compound 413980]	74%	60% and 65% and 70%
413981 (antisense e[5mC]*eT*d[5mC]*d[5mC]*dG*dG*d[5mC]*dT*d[5mC]*d[5mC]*d[5mC]*dA*dG*d[5mC]*dG*eG*e[5mC]*eA*eA*e[5mC]) [compound 413981]	71%	60% and 65% and 70%
413983 (antisense eG*e[5mC]*dG*d[5mC]*d[5mC]*dT*d[5mC]*d[5mC]*dG*dG*d[5mC]*dT*d[5mC]*d[5mC]*d[5mC]*eA*eG*e[5mC]*eG*eG) [compound 413983]	78%	60% and 65% and 70% and 75%
413984 (antisense e[5mC]*e[5mC]*dG*d[5mC]*dG*d[5mC]*d[5mC]*dT*d[5mC]*d[5mC]*dG*dG*d[5mC]*dT*d[5mC]*e[5mC]*e[5mC]*eA*eG*e[5mC]) [compound 413984]	71%	60% and 65% and 70%
413985 (antisense e[5mC]*e[5mC]*d[5mC]*d[5mC]*dG*d[5mC]*dG*d[5mC]*d[5mC]*dT*d[5mC]*d[5mC]*dG*dG*d[5mC]*eT*e[5mC]*e[5mC]*e[5mC]*eA) [compound 413985]	66%	60% and 65%
413986 (antisense eG*eT*d[5mC]*d[5mC]*d[5mC]*d[5mC]*dG*d[5mC]*dG*d[5mC]*d[5mC]*dT*d[5mC]*d[5mC]*dG*eG*e[5mC]*eT*e[5mC]*e[5mC]) [compound 413986]	69%	60% and 65%
413987 (antisense eA*eG*dG*dT*d[5mC]*d[5mC]*d[5mC]*d[5mC]*dG*d[5mC]*dG*d[5mC]*d[5mC]*dT*d[5mC]*e[5mC]*eG*eG*e[5mC]*eT) [compound 413987]	71%	60% and 65% and 70%

Substance	% inhibition	inhibition of a TGF-beta1 mRNA
413988 (antisense eA*eA*dG*dT*d[5mC]*d[5mC]*dT*dG*d[5mC]*d[5mC]*dT*d[5mC]*d[5mC]*dT*d[5mC]*eG*e[5mC]*eG*eG*eG) [compound 413988]	63%	60%
413989 (antisense eG*eG*d[5mC]*dA*dA*dA*dG*dG*dG*dA*dG*dG*d[5mC]*dG*dG*eT*e[5mC]*eT*eG*eG) [compound 413989]	41%	–
413990 (antisense eG*e[5mC]*dG*dG*d[5mC]*dA*dA*dA*dG*dG*dG*dA*dG*dG*d[5mC]*eG*eG*eT*e[5mC]*eT) [compound 413990]	59%	–
413991 (antisense e[5mC]*eG*dG*d[5mC]*dG*dG*d[5mC]*dA*dA*dA*dG*dG*dG*dA*dG*eG*e[5mC]*eG*eG*eT) [compound 413991]	69%	60% and 65%
413992 (antisense e[5mC]*e[5mC]*d[5mC]*dG*dG*d[5mC]*dG*dG*d[5mC]*dA*dA*dA*dG*dG*dG*eA*eG*eG*e[5mC]*eG) [compound 413992]	60%	60%
413993 (antisense eT*e[5mC]*d[5mC]*d[5mC]*d[5mC]*dG*dG*d[5mC]*dG*dG*d[5mC]*dA*dA*dA*dG*eG*eG*eA*eG*eG) [compound 413993]	52%	–
413994 (antisense e[5mC]*eG*dT*d[5mC]*d[5mC]*d[5mC]*d[5mC]*dG*dG*d[5mC]*dG*dG*d[5mC]*dA*dA*eA*eG*eG*eG*eA) [compound 413994]	67%	60% and 65%
413995 (antisense e[5mC]*e[5mC]*d[5mC]*dG*dA*dG*dG*dG*d[5mC]*dT*dG*dG*dT*d[5mC]*d[5mC]*eG*eG*eA*eA*eT) [compound 413995]	72%	60% and 65% and 70%
413996 (antisense eA*eA*dG*dT*d[5mC]*dT*dT*dT*dG*d[5mC]*dG*dG*dG*dA*dG*eG*e[5mC]*e[5mC]*eG*eG) [compound 413996]	51%	–
413997 (antisense eA*eA*dA*dA*dG*dT*d[5mC]*dT*dT*dT*dG*d[5mC]*dG*dG*dG*eA*eG*eG*e[5mC]*e[5mC]) [compound 413997]	41%	–
413998 (antisense eG*eG*dA*dA*dA*dA*dG*dT*d[5mC]*dT*dT*dT*dG*d[5mC]*dG*eG*eG*eA*eG*eG) [compound 413998]	13%	–
413999 (antisense eG*eG*d[5mC]*dT*d[5mC]*dA*dG*dG*dA*dG*dA*d[5mC]*dA*dG*dG*e[5mC]*e[5mC]*eG*eG*eG) [compound 413999]	72%	60% and 65% and 70%
414000 (antisense eA*eA*dG*dG*dG*dT*d[5mC]*dT*dA*dG*dG*dA*dT*dG*d[5mC]*eG*e[5mC]*eG*eG*eG) [compound 414000]	75%	60% and 65% and 70% and 75%
414001 (antisense e[5mC]*eA*dG*dG*dT*d[5mC]*dG*dG*dA*dG*dA*dG*dA*dG*dA*eT*e[5mC]*e[5mC]*eG*eT) [compound 414001]	78%	60% and 65% and 70% and 75%
414002 (antisense eG*eG*dT*dG*dG*dG*dT*dG*dG*dT*d[5mC]*dT*dT*dG*dA*eA*eT*eA*eG*eG) [compound 414002]	80%	60% and 65% and 70% and 75% and 80%
414003 (antisense eA*eA*dG*dG*dT*dG*dG*dG*dT*dG*dG*dT*d[5mC]*dT*dT*eG*eA*eA*eT*eA) [compound 414003]	67%	60% and 65%
414004 (antisense eA*eG*dA*dA*dG*dG*dT*dG*dG*dG*dT*dG*dG*dT*d[5mC]*eT*eT*eG*eA*eA) [compound 414004]	70%	60% and 65% and 70%
414005 (antisense e[5mC]*e[5mC]*dA*dG*dA*dA*dG*dG*dT*dG*dG*dG*dT*dG*dG*eT*e[5mC]*eT*eT*eG) [compound 414005]	77%	60% and 65% and 70% and 75%
